Activity calls are given as the source filed them. No cut-off for these calls is given here.

The subject of test [1] is Plasmodium yoelii nigeriensis. Briefly: Antimalarial activity against Plasmodium yoelii nigeriensis infected in Swiss mouse assessed as suppression of parasitemia at 24 mg/kg, im measured after 4 days relative to control. The conditions noted are these: time 4 day. The format is functional.
Test [2] deals with Plasmodium yoelii nigeriensis. As to the kind of experiment: Antimalarial activity against Plasmodium yoelii nigeriensis infected in Swiss mouse assessed as suppression of parasitemia at 48 mg/kg, po measured after 4 days relative to control. The class given is functional. Particulars: time 4 day.
Test [3] relates to Plasmodium yoelii nigeriensis. As to the kind of experiment: Antimalarial activity against Plasmodium yoelii nigeriensis infected in Swiss mouse assessed as suppression of parasitemia at 48 mg/kg, im measured after 4 days relative to control. The class given is functional. The conditions noted are these: time 4 day.
Test [4] concerns Plasmodium yoelii nigeriensis. Briefly: Antimalarial activity against Plasmodium yoelii nigeriensis infected in Swiss mouse assessed as survival at 48 mg/kg, im measured after 4 days relative to control. The class given is functional, organism-based. Particulars: time 4.0 day.
Test [5] deals with Plasmodium yoelii nigeriensis. Briefly: Antimalarial activity against Plasmodium yoelii nigeriensis infected in Swiss mouse assessed as suppression of parasitemia at 96 mg/kg, po measured after 4 days relative to control. The format is functional. Particulars: time 4 day.
Test [6] relates to Plasmodium yoelii nigeriensis. As to the kind of experiment: Antimalarial activity against Plasmodium yoelii nigeriensis infected in Swiss mouse assessed as suppression of parasitemia at 96 mg/kg, im measured after 4 days relative to control. The class given is functional. Particulars: time 4 day.
Test [7] has as its system Plasmodium yoelii nigeriensis. As to the kind of experiment: Antimalarial activity against Plasmodium yoelii nigeriensis infected in Swiss mouse assessed as survival at 96 mg/kg, po measured after 4 days relative to control. The format is functional, organism-based. Particulars: time 4.0 day.
Test [8] concerns Plasmodium yoelii nigeriensis. As to the kind of experiment: Antimalarial activity against Plasmodium yoelii nigeriensis infected in Swiss mouse assessed as suppression of parasitemia at 24 mg/kg, po measured after 4 days relative to control. The conditions noted are these: time 4 day. The class given is functional.
For test [9], the system named is Plasmodium yoelii nigeriensis. Briefly: Antimalarial activity against Plasmodium yoelii nigeriensis infected in Swiss mouse assessed as survival at 48 mg/kg, po measured after 4 days relative to control. The class given is functional, organism-based. Particulars: time 4.0 day.

Turning to `C[C@@H]1CC[C@H]2[C@@H](C)C(=O)O[C@@H]3O[C@@]4(C)CC[C@@H]1[C@]32OO4` [ARTEMISININ], the Activity in test [1], in [2] and in [3] was 100% each time. In addition, the result in test [4] was Active.
As for `C/C(=C/CO)C12OOC(C)(C)OC1CC(=O)c1ccccc12` (stereo not given), the figures for the Activity in test [5] and in test [6] were 53.17% and 37.81%, respectively.
On the same counts, the results for `C=C(c1ccc(OC(C)(C)CO)c2ccccc12)C1COC(C)(C)OO1` (stereo not given) are 24.76% and 48.27%.
With `C=C(c1ccc(O[Si](C)(C)C(C)(C)C)c2ccccc12)C1COC2(OO1)C1CC3CC(C1)CC2C3` (stereo not given), the Activity in test [5] was 27.71%.
For the compound `C=C(c1ccc(OCCO)c2ccccc12)C1COC2(OO1)C1CC3CC(C1)CC2C3` (stereo not given), the Activity in [5] is 24.1%; in test [6], 20.54%.
On the same counts, the results for `C/C(=C/CO)C12OOC3(CCCCC3)OC1CC(=O)c1ccccc12` (stereo not given) are 52.78% and 51.63%.
`C=C(c1ccc(O[Si](C)(C)C(C)(C)C)c2ccccc12)C1COC2(CCCC2)OO1` (stereo not given): in test [5], the Activity was 27.71%.
Regarding `C=C(c1ccc(OC(C)(C)CO)c2ccccc12)C1COC2(CCCCC2)OO1` (stereo not given), the Activity in test [5] and in [6] was 100% in each case. Further, the outcome in test [7] was Active.
As for `C=C(c1ccc(OC(C)(C)CO)c2ccccc12)C1COC2(OO1)C1CC3CC(C1)CC2C3` (stereo not given), the Activity in [5] is reported as 100%; in test [6] it was 100%; in [8], 100%; in [1] it was 27.68%; in [2], 100%; in test [3] it was 70.24%. The outcome in test [7] and in [9] was Active.
Consider `C=C(c1ccc(OC(C)(C)CO)c2ccccc12)C1COC2(CCCC2)OO1` (stereo not given), for which the Activity in [5] and in test [6] was 100% in each case. In [7], the result was Active.
Turning to `C/C(=C/CO)C12OOC3(OC1CC(=O)c1ccccc12)C1CC2CC(C1)CC3C2` (stereo not given), the Activity in test [5] was found to be 45.68%; in test [6], 35.89%.
In the case of `C=C(c1ccc(OCCO)c2ccccc12)C1COC2(CCCCC2)OO1` (stereo not given), the Activity in [5] is on record as 75.34%; in test [6], 100%.
For the compound `C/C(=C/CO)C12OOC3(CCCC3)OC1CC(=O)c1ccccc12` (stereo not given), the figures for the Activity in [5] and in test [6] were 39.17% and 37.43%, respectively.
`C=C(c1ccc(O[Si](C)(C)C(C)(C)C)c2ccccc12)C1COC2(CCCCC2)OO1` (stereo not given): the Activity in [5] was 45.56%.
Regarding `C=C(c1ccc(OCCO)c2ccccc12)C1COC(C)(C)OO1` (stereo not given), the Activity in test [5] is 22.89%; in [6], 40%.
On the same counts, the results for `C=C(c1ccc(OCCO)c2ccccc12)C1COC2(CCCC2)OO1` (stereo not given) are 57.23% and 100%.
In the case of `C=C(c1ccc(O[Si](C)(C)C(C)(C)C)c2ccccc12)C1COC(C)(C)OO1` (stereo not given), in test [5], the Activity worked out at 14.7%.

These data come from ChEMBL document CHEMBL5154640, “Novel naphthyl based 1,2,4-trioxanes: Synthesis and in vivo efficacy in the Plasmodium yoelii nigeriensis in Swiss mice” (2021).
